Read-outs that look alike come from different tables or passages of the source.
Experiments:
A3 AR = molecular target: T1, A3 AR (Homo sapiens, UniProt P0DMS8); experiment: Radioligand competition binding (125I-ABA) to human A3 AR in HEK 293 cell membranes; conditions: for Ki: Ki from competition binding, 125I-ABA, HEK 293 cell membranes; for A3/A2A: selectivity ratio A3 over A2A
T1 sequence (P0DMS8 1-318): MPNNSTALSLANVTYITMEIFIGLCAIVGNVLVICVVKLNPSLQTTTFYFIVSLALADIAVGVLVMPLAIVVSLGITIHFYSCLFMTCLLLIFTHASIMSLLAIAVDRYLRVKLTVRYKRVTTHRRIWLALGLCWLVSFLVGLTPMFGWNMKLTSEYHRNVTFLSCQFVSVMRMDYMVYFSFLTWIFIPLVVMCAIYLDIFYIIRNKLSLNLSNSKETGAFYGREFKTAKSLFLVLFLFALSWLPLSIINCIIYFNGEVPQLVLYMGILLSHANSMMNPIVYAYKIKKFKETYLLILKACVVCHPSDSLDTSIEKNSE

[1] = molecular target: recombinant human A2A receptors (Homo sapiens, UniProt P29274); experiment: Radioligand competition binding to recombinant human A2A receptors in Sf9 cell membranes
human A1 AR = molecular target: T2, human A1 AR (Homo sapiens, UniProt P30542); experiment: Radioligand competition binding (125I-ABA) to human A1 AR in CHO K1 cell membranes; conditions: for Ki: Ki from competition binding, 125I-ABA, CHO K1 cell membranes; for A1/A2A: selectivity ratio A1 over A2A
T2 sequence (P30542 1-326): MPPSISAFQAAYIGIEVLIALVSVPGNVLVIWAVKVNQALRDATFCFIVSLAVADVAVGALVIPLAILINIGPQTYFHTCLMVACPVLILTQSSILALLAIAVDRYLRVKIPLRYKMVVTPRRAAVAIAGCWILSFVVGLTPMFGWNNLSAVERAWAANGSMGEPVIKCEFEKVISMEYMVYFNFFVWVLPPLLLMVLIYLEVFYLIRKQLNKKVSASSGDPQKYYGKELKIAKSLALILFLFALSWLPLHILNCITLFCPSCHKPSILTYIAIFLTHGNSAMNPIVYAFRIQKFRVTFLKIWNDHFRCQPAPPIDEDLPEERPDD

human neutrophils = experiment: Human neutrophil oxidative activity, luminol-enhanced chemiluminescence; format: cell-based
Experimental: Chemiluminescence Methods: Lumninol enhanced chemiluminescence, a measure of neutrophil oxidative activity, is dependent upon both superoxide production and mobilization of the granule enzyme myeloperoxidase. The light is emitted from unstable high-energy oxygen species such as hypochlorous acid and singlet oxygen generated by activated neutrophils.
The plate was incubated 5 min (37 C) and then fMLP (50 l in HA; final concentration […]) was added to all wells.
Data are presented as peak chemiluminescence as percent of activity in the absence of an adenosine agonist. The EC50 was determined using PRISM software. All compounds were tested with PMNs from three separate donors.
Lummol-enhanced chemiluminescence, a measure of neutrophil oxidative activity, is dependent upon both superoxide production and mobilization of the lysosomal granule enzyme myeloperoxidase. The light is emitted from unstable high-energy oxygen species generated by activated neutrophils. Purified neutrophils (5-10×10^5/ml) were incubated in Hanks balanced salt solution containing 0.1% human serum albumin (1 ml) with the tested A2A agonist with or without rolipram and with or without tumor necrosis factor-alpha (1 U/ml) for 30 minutes at 37° C. in a shaking water bath. […] Chemiluminescence is reported as relative peak light emitted (=height of the curve) compared to samples with tumor necrosis factor-alpha and without agonist or rolipram.

[2] = A2A ± SEM, Ki from competition binding, Sf9 cell membranes
[3] = Homo sapiens, Neutrophil, human neutrophil experiment w/o Rolipram, read-out: PMN oxid (-log EC50) (converted)
[4] = human neutrophil experiment w/Rolipram
[5] = read-out: A2A ± SEM, Ki from competition binding, Sf9 cell membranes
[6] = human neutrophil experiment w/o Rolipram
[7] = human neutrophil experiment w/o Rolipram, read-out: PMN oxid (-log EC50) (converted)

recombinant human A2A receptors, sequence (P29274 whole entry): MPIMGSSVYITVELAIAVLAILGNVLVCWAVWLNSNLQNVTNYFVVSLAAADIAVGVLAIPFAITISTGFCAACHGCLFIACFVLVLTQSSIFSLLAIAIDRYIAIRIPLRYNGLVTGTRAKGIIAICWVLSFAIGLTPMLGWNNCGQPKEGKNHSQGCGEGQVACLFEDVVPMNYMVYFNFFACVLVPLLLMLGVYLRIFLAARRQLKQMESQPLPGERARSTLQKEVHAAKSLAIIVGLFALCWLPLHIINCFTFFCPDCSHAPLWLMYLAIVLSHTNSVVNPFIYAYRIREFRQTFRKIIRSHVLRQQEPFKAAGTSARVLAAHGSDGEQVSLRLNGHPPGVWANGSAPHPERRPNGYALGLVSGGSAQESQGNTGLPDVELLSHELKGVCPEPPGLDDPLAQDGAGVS

Ki (A3 AR; A3 ± SEM) [nM]	A3/A2A (A3 AR)	Ki [1, 2] [nM]	Ki (human A1 AR; A1 ± SEM) [nM]	A1/A2A (human A1 AR)	EC50 (human neutrophils; [3]) [nM]	PMN oxid + roli (-log EC50) (human neutrophils; [4])	SMILES	also measured
28 ± 3	15.6	1.8 ± 0.2	36 ± 2	20.0	31.6	8.64	CCNC(=O)[C@H]1O[C@@H](n2cnc3c(N)nc(C#CCC4CCC(C(N)=O)CC4)nc32)C(O)C1O (stereo in doubt) [JR-3055, 5-{6-Amino-2-[3-(4-carbamoyl-cyclohexyl)-prop-1-ynyl]purin-9-yl}-3,4-dihydroxytetrahydrofuran-2-carboxylic acid ethylamide]	
113 ± 6	127.0	0.9 ± 0.04	10.9 ± 0.5	12.2	4.47	9.29	CCNC(=O)[C@H]1O[C@@H](n2cnc3c(N)nc(C#CC4(O)CCC(c5ccccc5)CC4)nc32)C(O)C1O (stereo in doubt) [JR-3161, 5-[6-Amino-2-(1-hydroxy-4-phenyl-cyclohexylethynyl)-purin-9-yl]-3,4-dihydroxytetrahydrofuran-2-carboxylic acid ethylamide]	
3.5 ± 1.2			5 ± 1.3		1.26	9.6	CCNC(=O)[C@H]1O[C@@H](n2cnc3c(N)nc(C#CC4(O)CCCC4)nc32)C(O)C1O (stereo in doubt) [JR-3135, 5-[6-Amino-2-(1-hydroxy-cyclopentylethynyl)-purin-9-yl]-3,4-dihydroxytetrahydrofuran-2-carboxylic acid ethylamide]	
	96.7			19.0		8.57	CC(=O)OCC1CCC(CC#Cc2nc(N)c3ncn(C4OC(CO)C(O)C4O)c3n2)CC1 (stereo not shown) [JR-2147]	Ki (A3 AR; read-out: A3 ± SEM): 89 ± 21 nM; Ki [1, 5]: 0.9 ± 0.38 nM; Ki (human A1 AR; read-out: A1 ± SEM): 17.5 ± 5.2 nM; PMN oxid (-log EC50) (human neutrophils; [6]): 7.13
	0.0			0.0			CCNC(=O)[C@H]1O[C@@H](n2cnc3c(N)nc(C#CCN4CC5CC4CN5C(=O)OC(C)(C)C)nc32)C(O)C1O (stereo in doubt) [JR-4015, 5-{3-[6-Amino-9-(5-ethylcarbamoyl-3,4-dihydroxytetrahydrofuran-2-yl)-9H-purin-2-yl]prop-2-ynyl}-2,5-diazabicyclo[2.2.1]heptane-2-carboxylic acid tert-butyl ester]	Ki [1]: 4.25 ± 1 nM
		2.7			13		CCNC(=O)[C@H]1O[C@@H](n2cnc3c(N)nc(C#CC[C@H]4CC[C@H](COC(=O)OCc5ccccc5)CC4)nc32)C(O)C1O (stereo partly drawn) [ATL216, N-Ethyl 2-{3-[trans-4-(benzoxycarbonyloxamethyl)-cyclohexyl]-1-propyn-1-yl}adenosine-5′-uronamide]	
					30.2		CCNC(=O)[C@H]1O[C@@H](n2cnc3c(N)nc(NCCc4ccc(CCC(=O)O)cc4)nc32)[C@H](O)[C@@H]1O [CGS-21680, 2-[4-(2-carboxyethyl)phenethylamino]-5′-N-ethyl-carboxamidoadenosine, reference compound]	EC50 (human neutrophils; Homo sapiens, Neutrophil, human neutrophil experiment w/Rolipram, read-out: PMN oxid + roli (-log EC50) (converted)): 2.82 nM

More lines, now with the values behind:

SMILES	Ki (A3 AR; A3 ± SEM) [nM]	A3/A2A (A3 AR)	Ki [1, 2] [nM]	Ki (human A1 AR; A1 ± SEM) [nM]	A1/A2A (human A1 AR)	EC50 (human neutrophils; [3]) [nM]	PMN oxid + roli (-log EC50) (human neutrophils; [4])	also measured
CCNC(=O)C1OC(n2cnc3c(N)nc(C#CC(O)C4CCCCC4)nc32)C(O)C1O (single isomer, unassigned) [JR-3159B]		7.4			5.7		10.36	Ki (A3 AR; read-out: A3 ± SEM): 2.6 ± 0.3 nM; Ki [1, 5]: 0.4 ± 0.07 nM; Ki (human A1 AR; read-out: A1 ± SEM): 2 ± 0.21 nM; PMN oxid (-log EC50) (human neutrophils; [6]): 9.44
CCNC(=O)[C@H]1O[C@@H](n2cnc3c(N)nc(C#CC4(O)CCCC(C)(C)C4)nc32)C(O)C1O (stereo in doubt) [JR-3201B, 5-[6Amino-2-(1-hydroxy-3,3-dimethylcyclohexylethynyl)-purin-9-yl]-3,4-dihydroxytetrahydrofuran-2-carboxylic acid ethylamide]	23.6 ± 0.35	14.8	1.6 ± 0.28	157 ± 14	98.1	8.71	9.2	
CCNC(=O)[C@H]1O[C@@H](n2cnc3c(N)nc(C#CC4(O)CCCCC4C)nc32)C(O)C1O (single isomer, unassigned) [JR-3177A, 5-[6-Amino-2-(1-hydroxy-2-methyl-cyclohexylethynyl)-purin-9-yl]-3,4-dihydroxytetrahydrofuran-2-carboxylic acid ethylamide]	6.7 ± 0.3	5.5	1.2 ± 0.35	8.7 ± 0.07	7.1		9.03	PMN oxid (-log EC50) (human neutrophils; [6]): 7.53
CCNC(=O)[C@H]1O[C@@H](n2cnc3c(N)nc(C#CCC4CCC(C)(C(=O)OC)CC4)nc32)C(O)C1O (single isomer, unassigned) [JR-3067A, 4-{3-[6-Amino-9-(5-ethylcarbamoyl-3,4-dihydroxytetrahydrofuran-2-yl)-9H-purin-2-yl]-prop-2-ynyl}-1-methyl-cyclohexanecarboxylic acid methyl ester]	39 ± 3	30.0	1.3 ± 0.8	99 ± 27	76.2		8.7	PMN oxid (-log EC50) (human neutrophils; [6]): 7.65
OC[C@H]1O[C@@H](n2cnc3c(NC4CCCC4)ncnc32)[C@H](O)[C@@H]1O [CPA, N^6-cyclopentyladenosine, reference compound]	93 ± 7					93300	7.06	Ki ([1]; A2A ± SEM): 19.8 ± 3.2 nM
CCNC(=O)[C@H]1O[C@@H](n2cnc3c(N)nc(C#CC[C@H]4CC[C@H](COC(=O)OCC(C)C)CC4)nc32)C(O)C1O (stereo partly drawn) [ATL215, N-Ethyl 2-{3-[trans-4-(isobutoxyoxycarbonyloxamethyl)-cyclohexyl]-1-propyn-1-yl}adenosine-5′-uronamide]			4.8			20		
CCNC(=O)[C@H]1O[C@@H](n2cnc3c(N)nc(C#CCC4CCC(C(=O)OC)CC4)nc32)C(O)C1O (stereo in doubt) [ATL-146e, 4-{3-[6-Amino-9-(5-ethylcarbamoyl-3,4-dihydroxytetrahydrofuran-2-yl)-9H-purin-2-yl]-prop-2-ynyl}-cyclohexanecarboxylic acid methyl ester]	45 ± 15	90.0		77 ± 12	154.0		9.33	EC50 (human neutrophils; [7]): 3.55 nM
CNC(=O)[C@H]1O[C@@H](n2cnc3c(NCc4cccc(I)c4)nc(Cl)nc32)[C@H](O)[C@@H]1O [CI-IBMECA, N^6-3-iodo-2-chlorobenzyladenosine-5′-N-methyluronamide, reference compound]								EC50 (human neutrophils; [7]): 45700 nM
OC[C@H]1O[C@@H](n2cnc3c(NC4CCCC4)nc(Cl)nc32)[C@H](O)[C@@H]1O [CCPA, 2-chloro-N^6-cyclopentyladenosine, reference compound]							7.26	EC50 (human neutrophils; [7]): 4270 nM
CNC(=O)[C@H]1O[C@@H](n2cnc3c(NCc4cccc(I)c4)ncnc32)[C@H](O)[C@@H]1O [IBMECA, N^6-3-iodobenzyladenosine-5′-N-methyluronamide, reference compound]							8.01	EC50 (human neutrophils; [7]): 324 nM
CCNC(=O)[C@H]1O[C@@H](n2cnc3c(N)ncnc32)[C@H](O)[C@@H]1O [NECA, 5′-N-ethylcarboxamidoadenosine, reference compound]							8.95	EC50 (human neutrophils; [7]): 15.1 nM

Source: patent US7737127B2, “2-propynyl adenosine analogs having A2A agonist activity and compositions thereof” (University of Virginia Patent Foundation, priority 2001, dated 2010)
